A word on the EC50: it is the concentration giving half of the maximal effect. The low end stands for higher potency in that assay, the high end for lower potency in that assay.

Read-outs that look alike come from different tables or passages of the source.

We go through 3 compounds from patent publication US10154997B2, “Treatment of parasitic diseases using KDAC inhibitor compounds” (Washington University, priority 2015, dated 2018).

Assay [1] deals with B. malayi. Briefly: Endoparasites dose response assay (Endoparasites_DR), B. malayi. Further details: species or system Brugia malayi. The note with it: nematode B. malayi.
Assay [2] relates to L929 mouse fibroblast. The experiment in a line: Cytotoxicity viability assay (CYT vt). Format: cell-based.
The test system of assay [3] is parasites (nematodes and protists). The experiment in a line: Compound screening in parasites, summary statements.
Assay [4] deals with human cancer cell lines. Briefly: Activity on human cancer cell lines. Format: cell-based.
For assay [5], the system named is H. contortus. The experiment in a line: Endoparasites dose response assay (Endoparasites_DR), H. contortus. The note with it: Haemonchus contortus, 96 h.

In the case of `Cn1cc(/C=C/C(=O)c2cccc(NC(=O)OC(C)(C)C)c2)cc1C(=O)NO` [MC2776], the half-maximal effective concentration (EC50) in assay [1] came out at 4.39 µM. Moreover, the IC50 was above 10 µM in assay [2] (host-cell line, read-out: activity in the host-cell line) and above 10 µM in assay [4]. In addition, the “efficacy in the protists” value in assay [3] (any of the protists) is listed as “did not show any efficacy”.
As to `CC(C)(C)OC(=O)Nc1cccc(C(=O)/C=C/c2ccc(/C=C/C(=O)NO)cc2)c1` [MC2780], the pan-parasite potential entry in assay [3] (across parasites screened) is listed as “demonstrated pan-parasite potential”.
`CCCCCCCC(=O)SCC/C=C/[C@@H]1CC(=O)NCc2nc(cs2)C2=N[C@@](C)(CS2)C(=O)N[C@@H](C(C)C)C(=O)O1` [SD-L-148, Largazole, reference compound]: the IC50 in assay [5] was determined as 7.1 µM; in assay [2] (Mus musculus, L929), 0.101 µM.
